ChEMBL document CHEMBL1667723, “Biotransformation of turmerones by Aspergillus niger” (J Nat Prod, 2011)

Tests used:
Acetylcholinesterase [1] = biological target: T1, Acetylcholinesterase (Homo sapiens, UniProt P22303); assay: Inhibition of human erythrocytes acetylcholinesterase after 15 mins
Acetylcholinesterase [2] = biological target: T1, Acetylcholinesterase; assay: Inhibition of human erythrocytes acetylcholinesterase after 15 mins at 250 uM relative to control

T1 sequence (P22303 whole entry): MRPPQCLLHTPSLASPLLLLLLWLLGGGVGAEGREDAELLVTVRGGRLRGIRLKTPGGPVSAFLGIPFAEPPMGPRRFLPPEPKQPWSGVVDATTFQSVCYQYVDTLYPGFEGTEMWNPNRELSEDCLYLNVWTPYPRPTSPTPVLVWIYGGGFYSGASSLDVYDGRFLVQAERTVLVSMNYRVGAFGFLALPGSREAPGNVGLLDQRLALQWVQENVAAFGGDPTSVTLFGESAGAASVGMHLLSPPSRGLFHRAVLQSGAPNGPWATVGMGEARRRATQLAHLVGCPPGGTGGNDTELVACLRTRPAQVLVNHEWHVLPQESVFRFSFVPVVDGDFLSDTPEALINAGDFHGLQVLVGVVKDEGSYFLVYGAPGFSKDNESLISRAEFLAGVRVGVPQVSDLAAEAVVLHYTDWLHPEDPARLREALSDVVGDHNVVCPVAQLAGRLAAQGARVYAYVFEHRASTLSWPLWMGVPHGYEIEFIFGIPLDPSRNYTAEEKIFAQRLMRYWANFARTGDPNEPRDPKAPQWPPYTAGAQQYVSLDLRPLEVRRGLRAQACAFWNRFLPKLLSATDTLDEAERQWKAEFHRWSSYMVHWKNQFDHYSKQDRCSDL

| SMILES | IC50 (Acetylcholinesterase [1]) [µM] | inhibition (Acetylcholinesterase [2]) [%] |
| --- | --- | --- |
| CC(C)=CC(=O)C[C@H](C)c1ccc(C)cc1 | 191 |  |
| Cc1coc(C[C@](C)(O)c2ccc(C(=O)O)cc2)c1 |  | 33.6 |
| C/C(=C\C(=O)C[C@](C)(O)c1ccc(C(=O)O)cc1)CO |  | 34.3 |
| C/C(=C\C(=O)C[C@H](C)c1ccc(C(=O)O)cc1)CO |  | 31 |
| Cc1ccc([C@@H](C)CC(=O)CC(C)C)cc1 | 81.5 |  |
| CC(C)(O)CC(=O)CC(C)(O)c1ccc(C(=O)O)cc1 (single isomer, unassigned; (+)) |  | 37.6 |
| CC(C)=CC(=O)C[C@](C)(O)c1ccc(C(=O)O)cc1 |  | 41.9 |
